Data on 39 compounds can be found in US20230127046A1, “G9a INHIBITOR” (RIKEN, priority 2019, published 2023).

In this assay the target is T1, recombinant human G9a protein (Homo sapiens, UniProt Q96KQ7).
T1 construct: purchased BPS Bioscience Inc. #51001
T1 sequence (Q96KQ7 785-1210 limits assumed): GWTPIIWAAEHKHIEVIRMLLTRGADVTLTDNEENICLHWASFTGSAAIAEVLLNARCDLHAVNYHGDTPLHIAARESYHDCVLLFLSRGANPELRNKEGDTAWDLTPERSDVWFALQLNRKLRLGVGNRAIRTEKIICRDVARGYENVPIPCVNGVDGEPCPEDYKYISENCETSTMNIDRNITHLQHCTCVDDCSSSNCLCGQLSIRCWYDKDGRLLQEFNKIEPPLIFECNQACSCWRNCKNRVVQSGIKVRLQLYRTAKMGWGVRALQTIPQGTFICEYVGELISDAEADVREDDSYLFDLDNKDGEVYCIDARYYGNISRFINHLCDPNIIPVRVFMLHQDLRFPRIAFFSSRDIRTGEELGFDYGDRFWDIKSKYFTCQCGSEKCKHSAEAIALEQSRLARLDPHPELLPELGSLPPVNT
As to the kind of experiment: G9a inhibitory activity test (ALPHA). The assay is classed as biochemical. The conditions noted are these: read-out: Inhibitory activity (G9a IC50). In a few lines:
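Human G9a (0.05 to 0.1 nM) in Tris pH 9.0 buffer preincubated with compound 10 min, then biotinylated histone H3 (1-21) peptide and SAM mixed 1:1 from 500 nM and 150 μM solutions, 1 h at room temperature. H3K9me2 detected by AlphaLISA acceptor/streptavidin donor beads; IC50 from percent inhibition relative to no-compound and no-enzyme controls.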

In general, IC50 refers to the concentration that gives 50% inhibition. As to `CCCCC(NC(=O)c1[nH]c2c(c1C)C(=O)CC(C)(C)C2)C(=O)NCc1ccc(CCN)cc1` (stereo not drawn) [Example 24-3], the IC50 is less than 50 nM.

Turning to `CCCCC(NC(=O)c1[nH]c2c(c1C)C(=O)CC(C)(C)C2)C(=O)Nc1ccc(OCCN)nc1` (stereo not drawn) [Example 24-4], the IC50 fell in the range of 50 to 200 nM.

For the compound `CCCCC(NC(=O)c1[nH]c2c(c1C)C(=O)CC(C)(C)C2)C(=O)Nc1cc(C)c2nc(N)sc2c1` (stereo not drawn) [Example 24-5], the IC50 is not below 200 nM.

With `CCCCC(NC(=O)c1[nH]c2c(c1C)C(=O)CC(C)(C)C2)C(=O)Nc1cccc2c1CCNC2` (stereo not drawn) [Example 25-1, 3,6,6-trimethyl-4-oxo-N-[1-oxo-1-(1,2,3,4-tetrahydroisoquinolin-5-ylamino)hexan-2-yl]-5,7-dihydro-1H-indole-2-carboxamide], the IC50 is not below 200 nM.

On to `CCCCC(NC(=O)c1[nH]c2c(c1C)C(=O)CC(C)(C)C2)C(=O)Nc1ccc2c(c1)CCNC2` (stereo not drawn) [Example 25-2], for which the IC50 lay within 50 to 200 nM.

In the case of `CCCCC(NC(=O)c1[nH]c2c(c1C)C(=O)CC(C)(C)C2)C(=O)Nc1ccc2c(c1)CNCC2` (stereo not drawn) [Example 25-3], the IC50 was in the range of 50 to 200 nM.

Turning to `CCCCC(NC(=O)c1[nH]c2c(c1C)C(=O)CC(C)(C)C2)C(=O)Nc1ccc(OC2CNC2)nc1` (stereo not drawn) [Example 26-1], the IC50 lay in the range of 50 to 200 nM.

As to `CCCC[C@H](NC(=O)c1[nH]c2c(c1C)C(=O)CC(C)(C)C2)C(=O)Nc1ccc(OC2CNC2)nc1` [Example 26-2], the IC50 is less than 50 nM.

On to `CCCC[C@@H](NC(=O)c1[nH]c2c(c1C)C(=O)CC(C)(C)C2)C(=O)Nc1ccc(OC2CNC2)nc1` [Example 26-3], for which the IC50 lay in the range of 50 to 200 nM.

Consider `CCCCC(NC(=O)c1[nH]c2c(c1C)C(=O)CC(C)(C)C2)C(=O)Nc1ccc(OC2CCNCC2)nc1` (stereo not drawn) [Example 26-4], for which the IC50 is less than 50 nM.

Consider `CCCCC(NC(=O)c1[nH]c2c(c1C)C(=O)CC(C)(C)C2)C(=O)Nc1ccc(N2CCNCC2)nc1` (stereo not drawn) [Example 26-5], for which the IC50 lay within 50 to 200 nM.

For the compound `CCCCC(NC(=O)c1[nH]c2c(c1C)C(=O)CC(C)(C)C2)C(=O)Nc1ccc(OC2CNC2)cc1` (stereo not drawn) [Example 26-6], the IC50 fell in the range of 50 to 200 nM.

As to `CCCCC(NC(=O)c1[nH]c2c(c1C)C(=O)CC(C)(C)C2)C(=O)NCc1ccc(N2CCNCC2)cc1` (stereo not drawn) [Example 26-7], the half-inhibitory concentration (IC50) is less than 50 nM.

Regarding `CCCC[C@H](NC(=O)c1[nH]c2c(c1C)C(=O)CC(C)(C)C2)C(=O)NCc1ccc(N2CCNCC2)cc1` [Example 26-8], the IC50 is less than 50 nM.

In the case of `CCCCC(NC(=O)c1[nH]c2c(c1C)C(=O)CC(C)(C)C2)C(=O)Nc1ccc(N2CCC3(CNC3)C2)nc1` (stereo not drawn) [Example 27], the IC50 lay in the range of 50 to 200 nM.

As to `COc1ccc(NC(=O)C(CCC2CC2)NC(=O)c2ccc(C3CCNCC3)cc2)cn1` (stereo not drawn) [Example 28, N-[4-cyclopropyl-1-[(6-methoxypyridine-3-yl)amino]-1-oxobutan-2-yl]-4-piperidin-4-ylbenzamide], the half-maximal inhibitory concentration (IC50) was less than 50 nM.

`CCCCC(NC(=O)Cc1ccccc1N)C(=O)Nc1ccc(OC2CCN(C)CC2)nc1` (stereo not drawn) [Example 29]: the IC50 was not below 200 nM.

Regarding `Cc1c(C(=O)NC(CCC2CC2)c2nc3ccccc3n2C)[nH]c2c1C(=O)CC(C)(C)C2` (stereo not drawn) [Example 30-1, N-[3-cyclopropyl-1-(1-methylbenzoimidazol-2-yl)propyl]-3,6,6-trimethyl-4-oxo-5,7-dihydro-H-indole-2-carboxamide], the half-inhibitory concentration (IC50) lay in the range of 50 to 200 nM.

On to `Cc1c(C(=O)NC(CCC2CC2)c2nc3cccc(C)c3n2C)[nH]c2c1C(=O)CC(C)(C)C2` (stereo not drawn) [Example 30-2], for which the IC50 fell in the range of 50 to 200 nM.

For the compound `COC(=O)c1ccc2c(c1)nc(C(CCC1CC1)NC(=O)c1[nH]c3c(c1C)C(=O)CC(C)(C)C3)n2C` (stereo not drawn) [Example 30-3], the IC50 is not below 200 nM.

As for `Cc1ccc2nc(C(CCC3CC3)NC(=O)c3[nH]c4c(c3C)C(=O)CC(C)(C)C4)n(C)c2c1` (stereo not drawn) [Example 30-4], the IC50 is not below 200 nM.

Take `Cc1c(C(=O)NC(CCC2CC2)c2nc3cccc(CN(C)C)c3n2C)[nH]c2c1C(=O)CC(C)(C)C2` (stereo not drawn) [Example 31-1, N-[3-cyclopropyl-1-[7-[(dimethylamino)methyl]-1-methylbenzoimidazol-2-yl]propyl]-3,6,6-trimethyl-4-oxo-5,7-dihydro-1H-indole-2-carboxamide]: the concentration for half-maximal inhibition (IC50) was not below 200 nM.

Consider `Cc1c(C(=O)NC(CCC2CC2)c2nc3ccc(CN(C)C)cc3n2C)[nH]c2c1C(=O)CC(C)(C)C2` (stereo not drawn) [Example 31-2], for which the IC50 was not below 200 nM.

In the case of `Cc1c(C(=O)NC(CCC2CC2)c2nc3c(CN(C)C)cccc3n2C)[nH]c2c1C(=O)CC(C)(C)C2` (stereo not drawn) [Example 31-3], the IC50 is not below 200 nM.

For the compound `CCN(CC)Cc1cccc2c1nc(C(CCC1CC1)NC(=O)c1[nH]c3c(c1C)C(=O)CC(C)(C)C3)n2C` (stereo not drawn) [Example 31-4], the IC50 is not below 200 nM.

Consider `Cc1c(C(=O)NC(CCC2CC2)c2nc3c(CN4CCCC4)cccc3n2C)[nH]c2c1C(=O)CC(C)(C)C2` (stereo not drawn) [Example 31-5], for which the IC50 was 50 to 200 nM.

As for `Cc1c(C(=O)NC(CCC2CC2)c2nc3c(CN4CCN(C)CC4)cccc3n2C)[nH]c2c1C(=O)CC(C)(C)C2` (stereo not drawn) [Example 31-6], the IC50 was not below 200 nM.

Regarding `Cc1c(C(=O)NC(CCC2CC2)c2nc3c(CN(C)C4CCN(C)CC4)cccc3n2C)[nH]c2c1C(=O)CC(C)(C)C2` (stereo not drawn) [Example 31-7], the IC50 was not below 200 nM.

Consider `Cc1c(C(=O)NC(CCC2CC2)c2nc3cc(CN(C)C)ccc3n2C)[nH]c2c1C(=O)CC(C)(C)C2` (stereo not drawn) [Example 32, N-[3-cyclopropyl-1-[5-[(dimethylamino)methyl]-1-methylbenzoimidazol-2-yl]propyl]-3,6,6-trimethyl-4-oxo-5,7-dihydro-1H-indole-2-carboxamide], for which the IC50 is not below 200 nM.

As for `Cc1c(C(=O)NC(CCC2CC2)c2nc3cc(CO)ccc3n2C)[nH]c2c1C(=O)CC(C)(C)C2` (stereo not drawn) [Example 33, N-[3-cyclopropyl-1-[5-(hydroxymethyl)-1-methylbenzoimidazol-2-yl]propyl]-3,6,6-trimethyl-4-oxo-5,7-dihydro-1H-indole-2-carboxamide], the IC50 was not below 200 nM.

`CCCC[C@H](NC(=O)c1[nH]c2c(c1C)C(=O)CC(C)(C)C2)c1nc2ccc(OCCCN(C)C)cc2[nH]1` [Example 34-1, (S)-N-(1-(6-(3-(dimethylamino)propyloxy)-1H-benzo[d]imidazol-2-yl)pentyl)-3,6,6-trimethyl-4-oxo-4,5,6,7-tetrahydro-1H-indole-2-carboxamide]: the IC50 was not below 200 nM.

In the case of `CCCC[C@H](NC(=O)c1[nH]c2c(c1C)C(=O)CC(C)(C)C2)c1nc2ccc(OCCCN3CCCCC3)cc2[nH]1` [Example 34-2], the IC50 lay in the range of 50 to 200 nM.

Turning to `CCCC[C@H](NC(=O)c1[nH]c2c(c1C)C(=O)CC(C)(C)C2)c1nc2ccc(OCCCN3CCOCC3)cc2[nH]1` [Example 34-3], the IC50 is not below 200 nM.

For the compound `CCCC[C@H](NC(=O)c1[nH]c2c(c1C)C(=O)CC(C)(C)C2)c1nc2ccc(OC3CCN(C)CC3)cc2[nH]1` [Example 34-4], the IC50 is not below 200 nM.

In the case of `CCCC[C@H](NC(=O)c1[nH]c2c(c1C)C(=O)CC(C)(C)C2)c1nc2ccc(OCCO)cc2[nH]1` [Example 36, (S)-N-(1-(6-(2-hydroxyethoxy)-1H-benzo[d]imidazol-2-yl)pentyl)-3,6,6-trimethyl-4-oxo-4,5,6,7-tetrahydro-1H-indole-2-carboxamide], the 50% inhibitory concentration (IC50) is not below 200 nM.

For the compound `CCCC[C@H](NC(=O)c1[nH]c2c(c1C)C(=O)CC(C)(C)C2)c1nc2ccc(OCCN3CCCCC3)cc2[nH]1` [Example 37-1, (S)-3,6,6-trimethyl-4-oxo-N-(1-(6-(2-(piperidin-1-yl)ethoxy)-1H-benzo[d]imidazol-2-yl)pentyl)-4,5,6,7-tetrahydro-1H-indole-2-carboxamide], the IC50 was not below 200 nM.

With `CCCC[C@H](NC(=O)c1[nH]c2c(c1C)C(=O)CC(C)(C)C2)c1nc2ccc(OCCN3CCOCC3)cc2[nH]1` [Example 37-2], the IC50 was not below 200 nM.

As for `CCCC[C@H](NC(=O)c1[nH]c2c(c1C)C(=O)CC(C)(C)C2)c1nc2ccc(OCCN3CCCC3)cc2[nH]1` [Example 37-3], the IC50 is not below 200 nM.

On to `CCCC[C@H](NC(=O)c1[nH]c2c(c1C)C(=O)CC(C)(C)C2)c1nc2ccc(OCCN(C)C)cc2[nH]1` [Example 37-4], for which the IC50 was not below 200 nM.
